Read-outs that look alike come from different tables or passages of the source.
Assays:
[1] = system: adjuvant arthritis in Lewis rats; experiment: Analgesic activity: effect on adjuvant arthritis in rats (Randall-Selitto pain threshold); type: in vivo, rat; settings: dose 3.2 mg/kg; ratio of mechanical pain threshold of treated vs non-treated arthritic rats, 2 hr after administration; ratio of 1.5 = effective dose
COX-I = biological target: T1, COX-I (Homo sapiens, UniProt P23219); experiment: Whole blood assay for COX-I (TXB2 production); type: cell-based
T1 construct: Fresh blood was collected by syringe without anticoagulants from volunteers with consent; from tissue; host or cells: fresh human whole blood from volunteers, no anticoagulant, allowed to clot
Description: Fresh blood was collected by syringe without anticoagulants from volunteers with consent. The subjects had no apparent inflammatory conditions and had not taken any medication for at least 7 days prior to blood collection. 500 μl aliquots of human whole blood were immediately incubated with 2 μl of either DMSO vehicle or a test compound at final concentrations for 1 hr at 37 C. to allow the blood to clot. Appropriate treatments (no incubation) were used as blanks. At the end of the incubation, 5 μl of 250 mM Indomethacin was added to stop the reaction. The blood was centrifuged at 6000×g for 5 min at 4 C to obtain serum. A 100 μl aliquot of serum was mixed with 400 μl methanol for protein precipitation. The supernatant was obtained by centrifuging at 6000×g for 5 min at 4 C and was assayed for TXB2 using an enzyme immunoassay kit according to the manufacturer's procedure. For a test compound, the results were expressed as percent inhibition of TXB2 production relative to control incubations containing DMSO vehicle. The data were analyzed by that a test compound at the indicated concentrations was changed log value and was applied simple linear regression. IC50 value was calculated by least squares method.

COX-II = biological target: T2, COX-II (Homo sapiens, UniProt P35354); experiment: Whole blood assay for COX-II (LPS-induced PGE2 production); type: cell-based
T2 construct: lipopolysaccharide for 24 hr at 37 C for induction of COX-2; from tissue; host or cells: fresh heparinized human whole blood from volunteers, LPS-stimulated for 24 hr
T2 sequence (P35354 18-604): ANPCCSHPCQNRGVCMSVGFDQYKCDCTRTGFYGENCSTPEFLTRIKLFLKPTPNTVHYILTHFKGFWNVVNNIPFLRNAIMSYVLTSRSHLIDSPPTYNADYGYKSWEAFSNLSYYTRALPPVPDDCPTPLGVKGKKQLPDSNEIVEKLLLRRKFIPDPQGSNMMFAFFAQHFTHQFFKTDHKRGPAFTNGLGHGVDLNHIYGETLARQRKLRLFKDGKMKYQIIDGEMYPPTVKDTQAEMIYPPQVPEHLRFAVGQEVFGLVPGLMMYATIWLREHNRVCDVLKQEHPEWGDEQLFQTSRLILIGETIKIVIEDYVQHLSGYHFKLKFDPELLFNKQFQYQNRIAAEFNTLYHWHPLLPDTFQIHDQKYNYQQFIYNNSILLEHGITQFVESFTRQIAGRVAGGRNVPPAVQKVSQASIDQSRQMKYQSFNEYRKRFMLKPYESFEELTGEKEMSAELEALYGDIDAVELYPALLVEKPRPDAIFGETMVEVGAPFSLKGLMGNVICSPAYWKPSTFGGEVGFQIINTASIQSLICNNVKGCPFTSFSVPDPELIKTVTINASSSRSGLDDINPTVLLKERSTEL
Description: Fresh blood was collected in heparinized tubes by syringe from volunteers with consent. The subjects had no apparent inflammatory conditions and had not taken any medication for at least 7 days prior to blood collection. 500 μl aliquots of human whole blood were incubated with either 2 μl DMSO vehicle or 2 μl of a test compound at final concentrations for 15 min at 37 C This was followed by incubation of the blood with 10 μl of 5 mg/ml lipopolysaccharide for 24 hr at 37 C for induction of COX-2. Appropriate PBS treatments (no LPS) were used as blanks. At the end of the incubation, the blood was centrifuged at 6000×g for 5 min at 4 C to obtain plasma. A 100 μl aliquot of plasma was mixed with 400 μl methanol for protein precipitation. The supernatant was obtained by centrifuging at 6000×g for 5 min at 4 C and was assayed for PGE2 using a radioimmunoassay kit after conversion of PGE2 to its methyl oximate derivative according to the manufacturer's procedure. For a test compound, the results were expressed as percent inhibition of PGE2 production relative to control incubations containing DMSO vehicle. The data were analyzed by that a test compound at the indicated concentrations was changed log value and was applied simple linear regression. IC50 value was calculated by least squares method.

platelet aggregation = experiment: Inhibiting activity on aggregation of platelet (collagen-induced, platelet-rich plasma); type: cell-based; settings: human platelet-rich plasma, collagen 0.5 μg/mL as agonist; read-out: IC50 (inhibition of platelet aggregation)
Description: Blood from healthy human volunteers was collected into plastic vessels containing 3.8% sodium citrate (1/10 volume). The subject had no taken any compounds for at least seven days prior to blood collection. Platelet-rich plasma was obtained from the supernatant fraction of blood after centrifugation at 1200 r.p.m. for 10 min. Platelet-poor plasma was obtained by centrifugation of the remaining blood at 3000 r.p.m. for 10 min.
Platelet aggregation was measured according to the turbidimetric method with an aggregometer (Hema Tracer). In the cuvette, platelet-rich plasma was pre-incubated for 2 min at 37 C after the addition of compounds or vehicle. In order to quantify the inhibitory effects of each compound, the maximum increase in light transmission was determined from the aggregation curve for 7 min after the addition of agonist. We used collagen as agonist of platelet aggregation in this study. The final concentration of collagen was 0.5 μg/mL. The effect of each compound was expressed as percentage inhibition agonist-induced platelet aggregation compared with vehicle treatment. Data are presented as the mean±S.E.M. for six experiments. The IC50 value was obtained by linear regression, and is expressed as the compound concentration required to produce 50% inhibition of agonist-induced platelet aggregation in comparison to vehicle treatment.

[2] = human whole blood, 1 hr at 37 C, TXB2 production, read-out: COX-I IC50
[3] = human whole blood, LPS 24 hr at 37 C, PGE2 production, read-out: COX-II IC50

T1 sequence (P23219 24-599): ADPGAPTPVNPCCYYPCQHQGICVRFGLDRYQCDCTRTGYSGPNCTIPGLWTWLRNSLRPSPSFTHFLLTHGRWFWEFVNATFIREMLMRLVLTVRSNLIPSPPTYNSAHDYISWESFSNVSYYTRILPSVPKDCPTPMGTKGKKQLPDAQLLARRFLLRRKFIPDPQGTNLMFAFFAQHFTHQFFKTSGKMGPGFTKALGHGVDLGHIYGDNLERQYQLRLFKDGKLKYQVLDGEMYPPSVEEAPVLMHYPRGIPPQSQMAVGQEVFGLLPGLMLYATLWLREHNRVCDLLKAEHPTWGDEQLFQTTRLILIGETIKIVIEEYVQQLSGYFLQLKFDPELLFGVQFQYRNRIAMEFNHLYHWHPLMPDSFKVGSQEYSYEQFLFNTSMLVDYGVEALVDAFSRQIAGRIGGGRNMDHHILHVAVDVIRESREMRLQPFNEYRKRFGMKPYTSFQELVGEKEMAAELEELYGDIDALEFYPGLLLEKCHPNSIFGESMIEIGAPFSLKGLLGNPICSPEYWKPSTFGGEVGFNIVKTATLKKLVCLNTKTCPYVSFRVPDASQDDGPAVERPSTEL

SMILES | IC50 (COX-I; [2]) [nM] | IC50 (COX-II; [3]) [nM] | IC50 (platelet aggregation) [nM] | melting point [°C] | The coefficient of analgesic [1] | IC50 (COX-I) [nM] | IC50 (COX-II) [nM]
COc1ccc(-c2nc(OC)nn2-c2ccc(OC)cc2)cc1 [5(4), 3-Methoxy-1,5-bis(4-methoxyphenyl)-1H-1,2,4-triazole] |  |  | < 20 |  | >=1.5 |  | 
COc1ccc(-c2nc(SC)nn2-c2ccc(OC)cc2)cc1 [6(4), 1,5-bis(4-methoxyphenyl)-3-(methylthio)-1H-1,2,4-triazole] | < 10 | > 100 |  |  |  |  | 
COc1ccc(-c2nc(S(C)(=O)=O)nn2-c2ccc(OC)cc2)cc1 [6(6), 1,5-bis(4-methoxyphenyl)-3-(methylsulfonyl)-1H-1,2,4-triazole] | < 10 | > 100 |  |  |  |  | 
COc1ccc(-c2nc(OCC(F)(F)F)nn2-c2ccc(OC)nc2)cc1 [15-(4), 2-methoxy-5-(5-(4-methoxyphenyl)-3-(2,2,2-trifluoroethoxy)-1H-1,2,4-triazol-1-yl)pyridine] | < 10 | > 100 | < 20 | 63 to 64 |  |  | 
COc1ccc(-c2nc(OC(=O)N(C)C)nn2-c2ccc(OC)cc2)cc1 [Example 16, 1,5-bis(4-methoxyphenyl)-1H-1,2,4-triazol-3-yl dimethylcarbamate] |  |  |  | 121 to 123 |  | < 10 | > 100
C#CCOc1nc(-c2ccc(OC)cc2)n(-c2ccc(OC)cc2)n1 [Example 17, 1,5-bis(4-methoxyphenyl)-3-(2-propynyloxy)-1H-1,2,4-triazole] | < 10 | > 100 |  | 81 to 82 |  |  | 
COc1ccc(-c2nc(OCc3cscn3)nn2-c2ccc(OC)cc2)cc1 [Example 20, 1,5-bis(4-methoxyphenyl)-3-(1,3-thiazol-4-ylmethoxy)-1H-1,2,4-triazole] | < 10 | > 100 |  |  |  |  | 
COc1ccc(-c2nc(OC(C)C)nn2-c2ccc(OC)cc2)cc1 [Example 23, 1,5-bis(4-methoxyphenyl)-3-(2-propoxy)-1H-1,2,4-triazole] | < 10 | > 100 |  |  |  |  | 

Second part, led by results:

IC50 (COX-I; [2]) [nM] | IC50 (COX-II; [3]) [nM] | IC50 (platelet aggregation) [nM] | melting point [°C] | SMILES | The coefficient of analgesic [1] | IC50 (COX-I) [nM] | IC50 (COX-II) [nM]
< 10 | > 100 | < 20 |  | COc1ccc(-c2nc(C(F)(F)F)nn2-c2ccc(OC)cc2)cc1 [1(2), 1,5-bis(4-methoxyphenyl)-3-(trifluoromethyl)-1H-1,2,4-triazole] | >=1.5 |  | 
< 10 | > 100 |  |  | COc1ccc(-c2nc(C(F)(F)F)nn2-c2ccc(OC)nc2)cc1 [12(2), 2-methoxy-5-[5-(4-methoxyphenyl)-3-(trifluoromethyl)-1H-1,2,4-triazol-1-yl]pyridine] |  |  | 
 |  |  | 82 to 83 | COc1ccc(-n2nc(OCC(F)(F)F)nc2-c2ccc(OC)nc2)cc1 [14-(3), 2-methoxy-5-(1-(4-methoxyphenyl)-3-(2,2,2-trifluoroethoxy)-1H-1,2,4-triazole-5-yl)pyridine] |  |  | 
< 10 | > 100 |  |  | COc1ccc(-n2nc(C(F)(F)F)nc2-c2ccc(OC)nc2)cc1 [Example 8, 2-methoxy-5-[1-(4-methoxyphenyl)-3-(trifluoromethyl)-1H-1,2,4-triazol-5-yl]pyridine] |  |  | 
< 10 | > 100 | < 20 |  | COc1ccc(-c2nc(OCc3cc(C)on3)nn2-c2ccc(OC)cc2)cc1 [Example 19, 1,5-bis(4-methoxyphenyl)-3-[(5-methyl-3-isoxazolyl)methoxy]-1H-1,2,4-triazole] |  |  | 
< 10 | > 100 |  |  | COc1ccc(-c2nc(OCC(=O)N(C)C)nn2-c2ccc(OC)cc2)cc1 [Example 21, 2-{[1,5-bis(4-methoxyphenyl)-1H-1,2,4-triazol-3-yl]oxy}-N,N-dimethylacetamide] |  |  | 
< 10 | > 100 | < 20 |  | COc1ccc(-c2nc(OC3CCCCC3)nn2-c2ccc(OC)cc2)cc1 [Example 25, 1,5-bis(4-methoxyphenyl)-3-cyclohexyloxy-1H-1,2,4-triazole] | >=1.5 |  | 
< 10 | > 100 |  |  | COc1ccc(-c2nc(OCc3ccc(Cl)cc3)nn2-c2ccc(OC)cc2)cc1 [Example 26, 1,5-bis(4-methoxyphenyl)-3-(4-chlorophenylmethoxy)-1H-1,2,4-triazole] |  |  | 
